# Data reported in patent publication US4725577A, “Biologically active lysine containing octapeptides” (Administrators of the Tulane Educational Fund, priority 1986, dated 1988).
# Non-standard residues stand in square brackets, D forms with d. Residues, ends and D or L forms follow the SMILES beside them.
# Legend:
# [1] = test system: GH Release; assay: in vivo growth hormone bioassay in pentobarbital-anesthetized male rats, s.c. injection, plasma GH by RIA; design: species or system rat; conditions: for INHIBITION POTENCY GH in vivo: Table C, relative potency, SS-14 = 100, based on 4-point assays
# Method: The in vivo growth hormone bioassay utilized is as follows:
# Male Charles River CD rats (200-300 g.) with free access to food and water were anesthetized with sodium pentobarbital (60 mg.kg intraperitoneally). Thirty minutes later saline or octapeptide is injected subcutaneously and blood samples are drawn from the jugular vein 15 minutes after subcutaneous injection. The plasma is separated and assayed for growth hormone by RIA as described above. This in vivo bioassay is a modification of the methods used by Schally, et al., "Hypothalamic Peptide Hormones: Basic and Clinical Studies", "Hormonal Proteins and Peptides", C. H. Li, ed. Academic Press, N.Y. 7: 1-54, 1978; Meyers, C. A., Murphy, W. A., Redding T. W., Coy, D. H. and Schally, A. V., Proc. Natl. Acad. Sci., USA 77: 6171, 1980; Murphy, W. A., Meyers, C. A. and Coy, D. H., Endoc. 109: 491, (1981) as well as Veber et al., Pro. Natl. Acad. Sci., USA 75: 2636-2640 (1978). For some analogs, doses as low as 0.02 μg/100 g. or even 0.005 μg/ 100 g. are active. The potency of the octapeptides of this invention relative to somatostatin is illustrated in Tables A, B and C. Single dose assays are shown in Table A and 4 point assays at 2 dose levels in Tables B and C.
# [2] = test system: well differentiated (WD), chemically induced ductal adenocarcinoma; conditions: given twice daily or as controlled-release microcapsules; pancreatic cancer model not given; cited from earlier work
# [3] = test system: pentagastrin or desglugastrin-induced gastric acid output; assay: gastric acid secretion in dogs with gastric fistulae; type: in vivo
# Method: In order to compare some of the biological actions of the octapeptides of the present invention and somatostatin on gastrointestinal secretions and on the release of some gastrointestinal homones in dogs, the following procedures are used:
# Mongrel dogs weighing 15-20 kg. are prepared surgical with gastric (GF) and pancreatic fistulae (PF) as described by Konturek, et al., (1976) 225, 497 and Konturek, et al., Gastroenterology, (1976) 58, 1-6. Secretions from the GF and PF are collected continuously at 15 minute intervals. Hydrogen ion and pepsin concentrations in the […] are also measured in 15- or 30-minute outputs. (Konturek, et al., J. Physiol. Lond., 255, 497 (1976) and Konturek, et al., (1976) supra.). Basal secretion is first collected for two 15 minute periods, and then the secretory stimulant for gastric and/or pancreatic secretion is administered for 31/2 hours. When the secretory rate reaches a subtained plateau, the octapeptides or somatostatin are given in standard doses (2-μg/Kg/hr.). i.v. for a one hour period. […]
# In tests on gastric stimulation, pentagastrin or desglugastrin (glutaroyl-Ala-Tyr-Gly-Trp-Leu-Asp-Phe-NH2) is infused i.v. in a constant dose (3 μg/kg/hr.), shown previously to elicit near maximal gastric acid secretion. Gastric secretion is measured and acid content determined by titration with 0.1N NaOH. […]
# [4] = test system: growth hormone release; assay: time course of growth hormone suppression in vivo in Nembutal-anesthetized male rats; design: species or system rat; conditions: 2 μg/100 g
# Method: In order to determine the time course of the compounds of this invention, male rats are anesthetized with Nembutal and injected with saline or the test octapeptide as in the growth hormone potency assay above. Blood is collected from the jugular vein 15, 30, 45, 60, 90, 120 and 180 minutes post subcutaneous above. This time-course experiment for octapeptides on growth hormone release in vivo a significant suppression of plasma growth hormone. […] At the dose of 2 μg/100 g., the inhibitory effect of somatostatin on growth hormone release is no longer observed after 30 minutes (FIG. 1).
# [5] = test system: insulin release; assay: inhibition of insulin release in vivo in fasted male rats, i.v. injection, portal plasma insulin by RIA; design: species or system rat; conditions: Table C; relative potency, SS-14 = 100; based on 4-point assays
# Method: The octapeptides of the present invention are also compared to synthetic somatostatin for their ability to inhibit the release of insulin and glucagon in vivo in male rats (CD strain, Charles River) weighing 250-300 g. The rats are kept in controlled temperature (24° C.) and light (0500-1900 h) conditions for 1 week before the assay. Rats are fasted 27-30 hours with free access to water then anesthetized with Nembutal (6 mg/100 g. intraperitoneally). After 30 minutes, saline or test peptide is injected into the jugular vein and blood is collected 5 minutes later from the hepatic portal vein then transferred into chilled tubes containing EDTA (2.5 mg/ml.) and Trasylol (500 K.I.U./ml.). Plasma is separated and stored at -20° C. until assayed for insulin and glucagon. Plasma insulin is determined by double antibody radioimmunoassay using a kit from Cambridge Medical Diagnostics.
# [6] = test system: CPZ and Morphine stimulated GH secretion; assay: potency #3, time course of CPZ and Morphine stimulated GH secretion; type: in vivo; conditions: injected dose 2.0
# Excerpt: *Based on time course of CPZ and Morphine stimulated GH secretion.
compound,measurement,setting,value
"CC(=O)N[C@H](Cc1ccccc1)C(=O)N[C@@H](CS)C(=O)N[C@@H](Cc1ccccc1)C(=O)N[C@H](Cc1c[nH]c2ccccc12)C(=O)N[C@@H](CCCCN)C(=O)N[C@H](C(=O)N[C@@H](CS)C(=O)N1CCC[C@H]1C(N)=O)[C@@H](C)O [RC-76-2H, AcD-PheCysPheD-TrpLysThrCysProNH2] (Ac-[dF]CF[dW]KTCP-NH2)",INHIBITION POTENCY GH in vivo,[1],1070
CC(=O)N[C@@H](Cc1ccccc1)C(=O)N[C@H]1CSSC[C@@H](C(=O)N[C@H](C(N)=O)[C@@H](C)O)NC(=O)[C@H]([C@@H](C)O)NC(=O)[C@H](CCCCN)NC(=O)[C@@H](Cc2c[nH]c3ccccc23)NC(=O)[C@H](Cc2ccccc2)NC1=O [RC-101-I],INHIBITION POTENCY GH in vivo,[1],13560
"CC(=O)N[C@H](Cc1ccccc1)C(=O)N[C@@H](CS)C(=O)N[C@@H](Cc1ccccc1)C(=O)N[C@H](Cc1c[nH]c2ccccc12)C(=O)N[C@@H](CCCCN)C(=O)N[C@H](C(=O)N[C@@H](CS)C(=O)N[C@H](C(N)=O)[C@@H](C)O)[C@@H](C)O [RC-101-II-2H, AcD-PheCysPheD-TrpLysThrCysThrNH2]",INHIBITION POTENCY GH in vivo,[1],12900
CC(=O)N[C@H](Cc1ccccc1)C(=O)N[C@H]1CSSC[C@@H](C(=O)N[C@H](C(N)=O)[C@@H](C)O)NC(=O)[C@H](C(C)C)NC(=O)[C@H](CCCCN)NC(=O)[C@@H](Cc2c[nH]c3ccccc23)NC(=O)[C@H](Cc2ccc(O)cc2)NC1=O [RC-161],INHIBITION POTENCY GH in vivo,[1],5520
D-Trp-6-LH-RH,tumor weight and volume,[2],significantly decreased
"C[C@H](N)C(=O)NCC(=O)N[C@H]1CSSC[C@@H](C(=O)O)NC(=O)[C@H](CO)NC(=O)[C@H]([C@@H](C)O)NC(=O)[C@H](Cc2ccccc2)NC(=O)[C@H]([C@@H](C)O)NC(=O)[C@H](CCCCN)NC(=O)[C@H](Cc2c[nH]c3ccccc23)NC(=O)[C@H](Cc2ccccc2)NC(=O)[C@H](Cc2ccccc2)NC(=O)[C@H](CC(N)=O)NC(=O)[C@H](CCCCN)NC1=O [SS-14, Somatostatin]",duration of gastric acid inhibition after infusion,[3]; dogs with gastric fistulae,short-lived
same,inhibition of gastric acid output from the gastric fistula,"[3]; i.v. infusion for one hour, pentagastrin or desglugastrin stimulation",strongly inhibit
same,GH Level 15',"[1]; Potency assay #1 (89th experiment), 0.4 μg/100 g B.W., control 116 ± 10",88 ± 22 ng/mL
same,GH Level 15',"[1]; Potency assay #1, 1.6 μg/100 g B.W., control 116 ± 10",53 ± 10 ng/mL
same,GH Level 15',"[1]; Potency assay #2 (108th experiment), 0.2 μg/100 g B.W., control 211 ± 56",171 ± 26 ng/mL
same,GH Level 15',"[1]; Potency assay #2, 0.8 μg/100 g B.W., control 211 ± 56",91 ± 12 ng/mL
same,GH-Level mean ± SEM,"[1]; Table A single dose assay, 2.00 μg/100 g B.W. s.c., saline control 374 ± 69",50 ± 12 ng/mL
same,GH-Level mean ± SEM,"[1]; Table A single dose assay, 2.00 μg/100 g B.W. s.c., saline control 754 ± 155",95 ± 31 ng/mL
same,GH-Level mean ± SEM,"[1]; Table B four-point assay, 0.4 μg/100 g B.W., saline control 277 ± 166",86 ± 16 ng/mL
same,GH-Level mean ± SEM,"[1]; Table B four-point assay, 1.6 μg/100 g B.W., saline control 277 ± 166",47 ± 17 ng/mL
same,INHIBITION POTENCY GH in vivo,[1],100
same,time after which inhibitory effect on growth hormone release is no longer observed,[4],≤ 30 min
same,INHIBITION POTENCY INSULIN in vivo,[5],100
same,GH-RH LEVEL,[6],0.1032
"CC(=O)N[C@@H](Cc1ccccc1)C(=O)N[C@@H](CS)C(=O)N[C@@H](Cc1ccccc1)C(=O)N[C@H](Cc1c[nH]c2ccccc12)C(=O)N[C@@H](CCCCN)C(=O)N[C@H](C(=O)N[C@@H](CS)C(=O)N[C@H](C(N)=O)[C@@H](C)O)[C@@H](C)O [RC-101-I-2H, AcPheCysPheD-TrpLysThrCysThrNH2]",INHIBITION POTENCY GH in vivo,[1],11320
